Data on 27 compounds can be found in patent US12018021B2 (UCB Biopharma SRL, priority 2018, dated 2024).

As usually defined, the pIC50 is the IC50 on a negative log10 scale, so that one unit is a factor of ten.

Structures are written as SMILES. pIC50: −log10 of the molar value.

This assay addresses IgE-Tb / FcεRIα-Y131A-AF488 (Homo sapiens, UniProt P01854). The assay can be described thus: IgE-Tb / FcεRIα-Y131A-AF488 FRET assay (protocol for examples 1 to 233). The class given is binding. The following applies: examples 1 to 233: 5 nM IgE-Tb, 25 nM FcεRIα-Y131A-AF488, incubated 2 hours at room temperature; read-out: Y131A FRET IC50 range. An outline of the steps:
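TR-FRET displacement with 5 nM IgE-Tb and 25 nM FcεRIα-Y131A-AF488 (final), 10-point 3-fold compound dilutions from typically 10 μM top, 2% DMSO, 2 h at room temperature. Excitation 330 nm, 520/495 nm emission ratio; MIN set with 200 nM unlabelled FcεRIα. IC50 from four-parameter logistic fit of percent inhibition.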

Sequence of IgE-Tb / FcεRIα-Y131A-AF488 (P01854 1-427 limits assumed, stated change not applied): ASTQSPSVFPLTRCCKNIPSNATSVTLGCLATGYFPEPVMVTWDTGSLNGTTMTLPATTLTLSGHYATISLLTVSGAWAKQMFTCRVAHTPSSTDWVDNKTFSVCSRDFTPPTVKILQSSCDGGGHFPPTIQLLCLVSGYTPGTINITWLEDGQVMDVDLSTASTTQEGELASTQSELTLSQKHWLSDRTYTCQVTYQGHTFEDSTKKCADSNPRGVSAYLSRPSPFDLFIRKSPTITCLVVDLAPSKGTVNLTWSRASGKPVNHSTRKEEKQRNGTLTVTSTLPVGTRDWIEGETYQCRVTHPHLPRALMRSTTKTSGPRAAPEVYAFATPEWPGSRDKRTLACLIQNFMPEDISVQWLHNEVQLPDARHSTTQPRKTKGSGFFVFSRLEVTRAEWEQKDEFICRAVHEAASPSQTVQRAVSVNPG

For the compound `O=C(NCC1CC1)c1c(NC(=O)C2CC2)sc2c1C[C@@H](n1cnnc1Nc1ccccn1)CC2` [Example 138, (5S)-2-(Cyclopropanecarbonylamino)-N-(cyclopropylmethyl)-5-[3-(2-pyridylamino)-1,2,4-triazo-4-yl]-4,5,6,7-tetrahydrobenzothiophene-3-carboxamide], the negative logarithm of the IC50 (pIC50) is above 6.00.

As to `CC(=O)Nc1nccn1[C@H]1CCc2sc(NC(=O)C3CC3)c(C(=O)NCC3CC3)c2C1` [Example 139, (5S)-5-(2-Acetamidoimidazol-1-yl)-2-(cyclopropanecarbonylamino)-N-(cyclopropylmethyl)-4,5,6,7-tetrahydrobenzothiophene-3-carboxamide], the negative-log IC50 (pIC50) was above 6.00.

For `O=C(NCC1CC1)c1c(NC(=O)C2CC2)sc2c1CC(n1nncc1Nc1cccnc1)CC2` (stereo not drawn) [Example 141, 2-(Cyclopropanecarbonylamino)-N-(cyclopropylmethyl)-5-[5-(3-pyridylamino)triazo-1-yl]-4,5,6,7-tetrahydrobenzothiophene-3-carboxamide], the pIC50 was above 6.00.

For the compound `CCNC(=S)NC1CCc2sc(NC(=O)C3CC3)c(C(=O)NCC3CC3)c2C1` (stereo not drawn) [Example 142, 2-(Cyclopropanecarbonylamino)-N-(cyclopropylmethyl)-5-(ethylcarbamothioylamino)-4,5,6,7-tetrahydrobenzothiophene-3-carboxamide], the pIC50 is above 6.00.

For `O=C(NCC1CC1)c1c(NC(=O)C2CC2)sc2c1C[C@@H](n1cnnc1N[C@H]1CCOC1)CC2` [Example 143, (5S)-2-(cyclopropanecarbonylamino)-N-(cyclopropylmethyl)-5-[3-[[(3S)-tetrahydrofuran-3-yl]amino]-1,2,4-triazol-4-yl]-4,5,6,7-tetrahydrobenzothiophene-3-carboxamide], the negative-log IC50 (pIC50) was above 6.00.

Consider `CCNC(=NC#N)NC1CCc2sc(NC(=O)C3CC3)c(C(=O)NCC3CC3)c2C1` (stereo not drawn) [Example 144, 5-[[N′-Cyano-N-ethyl-carbamimidoyl]amino]-2-(cyclopropanecarbonylamino)-N-(cyclopropylmethyl)-4,5,6,7-tetrahydrobenzothiophene-3-carboxamide], for which the negative logarithm of the IC50 (pIC50) was above 6.00.

`CCN/C(=N\[N+](=O)[O-])N[C@H]1CCc2sc(NC(=O)C3CC3)c(C(=O)NCC3CC3)c2C1` [Example 145, (5S)-2-(Cyclopropanecarbonylamino)-N-(cyclopropylmethyl)-5-[[(E)-N-ethyl-N′-nitro-carbamimidoyl]amino]-4,5,6,7-tetrahydrobenzothiophene-3-carboxamide]: the pIC50 was above 6.00.

`CCN/C(=N\[N+](=O)[O-])N[C@@H]1CCc2sc(NC(=O)C3CC3)c(C(=O)NCC3CC3)c2C1` [Example 146, (5R)-2-(Cyclopropanecarbonylamino)-N-(cyclopropylmethyl)-5-[[(E)-N-ethyl-N′-nitro-carbamimidoyl]amino]-4,5,6,7-tetrahydrobenzothiophene-3-carboxamide]: the negative-log IC50 (pIC50) was 4.30 to 5.00.

Turning to `CCNc1nccn1[C@H]1CCc2sc(NC(=O)C3CC3)c(C(=O)NCC3CC3)c2C1` [Example 147, (5S)-2-(Cyclopropanecarbonylamino)-N-(cyclopropylmethyl)-5-[2-(ethylamino)imidazol-1-yl]-4,5,6,7-tetrahydrobenzothiophene-3-carboxamide], the negative logarithm of the IC50 (pIC50) is above 6.00.

With `Cc1noc(C)c1Nc1nncn1[C@H]1CCc2sc(NC(=O)C3CC3)c(C(=O)NCC3CC3)c2C1` [Example 148, (5S)-2-(Cyclopropanecarbonylamino)-N-(cyclopropylmethyl)-5-[3-[(3,5-dimethylisoxazol-4-yl)amino]-1,2,4-triazol-4-yl]-4,5,6,7-tetrahydrobenzothiophene-3-carboxamide], the pIC50 is above 6.00.

As for `CCOC(=O)N=C(Nc1ccc(C)cc1)NC1CCc2sc(NC(=O)C3CC3)c(C(=O)NCC3CC3)c2C1` (stereo not drawn) [Example 149, ethyl N-[[[2-(cyclopropanecarbonylamino)-3-(cyclopropylmethylcarbamoyl)-4,5,6,7-tetrahydrobenzothiophen-5-yl]amino]-(4-methylanilino)methylene]carbamate], the negative logarithm of the IC50 (pIC50) is above 6.00.

As for `Cc1ncccc1Nc1nccn1[C@H]1CCc2sc(NC(=O)C3CC3)c(C(=O)NCC3CC3)c2C1` [Example 150, (5S)-2-(Cyclopropanecarbonylamino)-N-(cyclopropylmethyl)-5-[2-[(2-methyl-3-pyridyl)amino]imidazol-1-yl]-4,5,6,7-tetrahydrobenzothiophene-3-carboxamide], the negative logarithm of the IC50 (pIC50) is above 6.00.

For the compound `CCNC(=C[N+](=O)[O-])NC1CCc2sc(NC(=O)C3CC3)c(C(=O)NCC3CC3)c2C1` (stereo not drawn) [Example 151, 2-(cyclopropanecarbonylamino)-N-(cyclopropylmethyl)-5-[[1-(ethylamino)-2-nitro-vinyl]amino]-4,5,6,7-tetrahydrobenzothiophene-3-carboxamide], the pIC50 was 5.00 to 6.00.

For the compound `Cc1cc(=O)[nH]c(NC2CCc3sc(NC(=O)C4CC4)c(C(=O)NCC4CC4)c3C2)n1` (stereo not drawn) [Example 152, 2-(Cyclopropanecarbonylamino)-N-(cyclopropylmethyl)-5-[(4-methyl-6-oxo-1H-pyrimidin-2-yl)amino]-4,5,6,7-tetrahydrobenzothiophene-3-carboxamide], the pIC50 was above 6.00.

On to `CNC(=O)c1ncn([C@H]2CCc3sc(NC(=O)C4CC4)c(C(=O)NCC4CC4)c3C2)c1N` [Example 153, 5-amino-1-[(5S)-2-cyclopropaneamido-3-[(cyclopropylmethyl)carbamoyl]-4,5,6,7-tetrahydro-1-benzothiophen-5-yl]-N-methyl-1H-imidazole-4-carboxamide], for which the pIC50 was above 6.00.

Regarding `NC(=O)c1ncn([C@H]2CCc3sc(NC(=O)C4CC4)c(C(=O)NCC4CC4)c3C2)c1N` [Example 154, 5-amino-1-[(5S)-2-cyclopropaneamido-3-[(cyclopropylmethyl)carbamoyl]-4,5,6,7-tetrahydro-1-benzothiophen-5-yl]-1H-imidazole-4-carboxamide], the pIC50 was above 6.00.

For the compound `O=C(NCC1CC1)c1c(NC(=O)C2CC2)sc2c1CC(n1ccnc1Nc1ccccc1)CC2` (stereo not drawn) [Example 155, 5-(2-Anilinoimidazol-1-yl)-2-(cyclopropanecarbonylamino)-N-(cyclopropylmethyl)-4,5,6,7-tetrahydrobenzothiophene-3-carboxamide], the pIC50 was above 6.00.

With `CCNC(=NC#N)N[C@H]1CCc2sc(NC(=O)C3CC3)c(C(=O)NCC3CC3)c2C1` [Example 156, (5S)-5-[[N′-cyano-N-ethyl-carbamimidoyl]amino]-2-(cyclopropanecarbonylamino)-N-(cyclopropylmethyl)-4,5,6,7-tetrahydrobenzothiophene-3-carboxamide], the negative-log IC50 (pIC50) was above 6.00.

Take `CCNC(=O)NC1CCc2sc(NC(=O)C3CC3)c(C(=O)NCC3CC3)c2C1` (stereo not drawn) [Example 157, 2-(Cyclopropanecarbonylamino)-N-(cyclopropylmethyl)-5-(ethylcarbamoylamino)-4,5,6,7-tetrahydrobenzothiophene-3-carboxamide]: the pIC50 is 5.00 to 6.00.

In the case of `O=C(NCC1CC1)c1c(NC(=O)C2CC2)sc2c1CC(Nc1cc(=O)cc[nH]1)CC2` (stereo not drawn) [Example 158, 2-(Cyclopropanecarbonylamino)-N-(cyclopropylmethyl)-5-[(4-oxo-1H-pyridin-2-yl)amino]-4,5,6,7-tetrahydrobenzothiophene-3-carboxamide], the negative logarithm of the IC50 (pIC50) is above 6.00.

`Cc1nnc(-c2ccc(N[C@H]3CCc4sc(NC(=O)C5CC5)c(C(=O)NCC5CC5)c4C3)cn2)o1` [Example 159, (5S)-2-(cyclopropanecarbonylamino)-N-(cyclopropylmethyl)-5-[[6-(5-methyl-1,3,4-oxadiazol-2-yl)-3-pyridyl]amino]-4,5,6,7-tetrahydrobenzothiophene-3-carboxamide]: the negative-log IC50 (pIC50) was above 6.00.

Regarding `CCNc1nnnn1C1CCc2sc(NC(=O)C3CC3)c(C(=O)NCC3CC3)c2C1` (stereo not drawn) [Example 160, 2-(Cyclopropanecarbonylamino)-N-(cyclopropylmethyl)-5-[5-(ethylamino)tetrazol-1-yl]-4,5,6,7-tetrahydrobenzothiophene-3-carboxamide], the negative logarithm of the IC50 (pIC50) was above 6.00.

`O=C(NCC1CC1)c1c(NC(=O)C2CC2)sc2c1CC(Nc1nc[nH]n1)CC2` (stereo not drawn) [Example 161, 2-(Cyclopropanecarbonylamino)-N-(cyclopropylmethyl)-5-(1H-1,2,4-triazol-3-ylamino)-4,5,6,7-tetrahydrobenzothiophene-3-carboxamide]: the pIC50 was above 6.00.

For `Cc1cc(Nc2nncn2[C@@H]2CCc3sc(NC(=O)C4CC4)c(C(=O)NCC4CC4)c3C2)n(C)n1` [Example 162, (5R)-2-(Cyclopropanecarbonylamino)-N-(cyclopropylmethyl)-5-[3-[(2,5-dimethylpyrazol-3-yl)amino]-1,2,4-triazol-4-yl]-4,5,6,7-tetrahydrobenzothiophene-3-carboxamide], the negative logarithm of the IC50 (pIC50) is above 6.00.

In the case of `Cn1cc(-n2cnnc2N[C@H]2CCc3sc(NC(=O)C4CC4)c(C(=O)NCC4CC4)c3C2)cn1` [Example 163, (5S)-2-(Cyclopropanecarbonylamino)-N-(cyclopropylmethyl)-5-[[4-(1-methylpyrazol-4-yl)-1,2,4-triazol-3-yl]amino]-4,5,6,7-tetrahydrobenzothiophene-3-carboxamide], the pIC50 was 5.00 to 6.00.

As for `CCOC(=O)c1cn([C@H]2CCc3sc(NC(=O)C4CC4)c(C(=O)NCC4CC4)c3C2)cn1` [Example 164, ethyl 1-[(5S)-2-cyclopropaneamido-3-[(cyclopropylmethyl)carbamoyl]-4,5,6,7-tetrahydro-1-benzothiophen-5-yl]-1H-imidazole-4-carboxylate], the pIC50 was above 6.00.

In the case of `O=C(NCC1CC1)c1c(NC(=O)C2CC2)sc2c1CC(Nc1nncn1-c1ccc(F)cc1)CC2` (stereo not drawn) [Example 165, 2-(Cyclopropanecarbonylamino)-N-(cyclopropylmethyl)-5-[[4-(4-fluorophenyl)-1,2,4-triazol-3-yl]amino]-4,5,6,7-tetrahydrobenzothiophene-3-carboxamide], the pIC50 was above 6.00.
